Assay results taken from US11274090B2, “P300/CBP HAT inhibitors” (Constellation Pharmaceuticals, Inc., priority 2018, dated 2022).

Target: p300 HAT domain (residues 1287-1666) (Homo sapiens (Human), UniProt Q09472)
Assay: p300 HAT SPA assay (scintillation proximity assay, acetylation of biotinylated H3(1-21) peptide)
Type: biochemical
Conditions: average of at least 2 replicate titrations
Description: In a typical experiment the p300 HAT inhibitory activity of the compounds described herein was determined in accordance with the following experimental method.
The expressed protein was purified by Ni2+ affinity, followed by anion exchange chromatography. Appropriate fractions were pooled and buffer exchanged into 20 mM Hepes pH 7.5, 150 mM NaCl, and 1 mM TCEP.
35 μL of the reaction volume was transferred to a 384-well streptavidin FlashPlate (PerkinElmer) using a Bravo liquid handler (Velocity 11) and incubated for 1.5 hr at RT. […] Data were analyzed in Genedata to determine inhibitor IC50 values.

Chain of p300 HAT domain (residues 1287-1666) (Q09472 1287-1666): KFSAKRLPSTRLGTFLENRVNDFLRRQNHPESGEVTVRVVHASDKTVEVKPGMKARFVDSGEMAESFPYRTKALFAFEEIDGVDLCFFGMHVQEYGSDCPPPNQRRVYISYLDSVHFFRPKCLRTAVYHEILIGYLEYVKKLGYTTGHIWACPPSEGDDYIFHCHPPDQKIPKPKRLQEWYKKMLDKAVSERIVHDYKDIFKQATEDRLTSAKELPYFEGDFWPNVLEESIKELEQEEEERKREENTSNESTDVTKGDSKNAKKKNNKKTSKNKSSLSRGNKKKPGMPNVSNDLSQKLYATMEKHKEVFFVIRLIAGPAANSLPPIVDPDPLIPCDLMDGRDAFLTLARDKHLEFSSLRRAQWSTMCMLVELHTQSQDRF

IC50 [nM] | Compound
> 2000 | Cn1cc(-c2ccc(NC(=O)C(NCCc3ccc(C#N)cc3)c3cccc(Cl)c3)nc2)cn1 (single isomer, unassigned) [79 Isomer 1]
97.7 | Cn1cc(-c2ccc(NC(=O)C(NCCc3ccc(C#N)cc3)c3cccc(Cl)c3)nc2)cn1 (single isomer, unassigned) [79 Isomer 2]
> 2000 | N#Cc1ccc(CCNC(C(=O)Nc2ccc(N3CC4(COC4)C3)cn2)c2ccccc2)cc1 (single isomer, unassigned) [80 Isomer 2]
604 | CC(CNC(C(=O)Nc1ccc(-c2cnn(C)c2)cc1)c1ccccc1)c1ccc(C#N)cc1 (single isomer, unassigned) [82 Isomer 3]
> 2000 | CC(CNC(C(=O)Nc1ccc(-c2cnn(CC(F)(F)F)c2)cn1)c1ccccc1)c1ccc(C#N)cc1 (single isomer, unassigned) [83 Isomer 2]
503 | CC(CNC(C(=O)Nc1ccc(-c2cnn(CC(F)(F)F)c2)cn1)c1ccccc1)c1ccc(C#N)cc1 (single isomer, unassigned) [83 Isomer 3]
> 2000 | COc1ccccc1C(NCCc1ccc(C#N)cc1)C(=O)Nc1ccc(-c2cnn(C)c2)cn1 (single isomer, unassigned) [87 Isomer 2]
> 2000 | Cn1cc(-c2ccc(NC(=O)C(NCCc3ccc(C#N)cc3)c3ccccc3Cl)nc2)cn1 (single isomer, unassigned) [88 Isomer 2]
> 2000 | Cn1cc(-c2ccc(NC(=O)C(NCCc3ccc(C#N)cc3)C3CCCCC3)nc2)cn1 (single isomer, unassigned) [89 Isomer 1]
473 | CC(CNC(C(=O)Nc1ccc(-c2cnn(C)c2)cn1)c1ccccc1)c1ccc(C#N)c(F)c1 (single isomer, unassigned) [91 Isomer 1]
1020 | CC(CNC(C(=O)Nc1ccc(-c2cnn(C)c2)cn1)c1ccccc1)c1ccc(C#N)c(F)c1 (single isomer, unassigned) [91 Isomer 3]
401 | CC(CNC(C(=O)Nc1ccc(-c2cnn(C)c2)cn1)c1ccccc1)c1ccc(C#N)c(F)c1 (single isomer, unassigned) [91 Isomer 4]
11.5 | CO[C@@H]1CCN(c2ccc(NC(=O)C(NCC(C)c3ccc(C#N)cc3)c3ccccc3)nc2)C1 (single isomer, unassigned) [92 Isomer 2]
> 2000 | CO[C@H]1CCN(c2ccc(NC(=O)C(NCC(C)c3ccc(C#N)cc3)c3ccccc3)nc2)C1 (single isomer, unassigned) [93 Isomer 2]
85.1 | Cn1cc(-c2ccc(NC(=O)C(NCCc3ccc(Cl)cc3C#N)c3ccccc3)nc2)cn1 (single isomer, unassigned) [94 Isomer 1]
41.4 | Cn1cc(-c2ccc(NC(=O)C(NCCc3ccc(C#N)cc3C(F)(F)F)c3ccccc3)nc2)cn1 (single isomer, unassigned) [95 Isomer 1]
67.4 | N#Cc1ccc(CCNC(C(=O)Nc2ccc(N3CCC4(COC4)C3)cn2)c2ccccc2)cc1 (single isomer, unassigned) [96 Isomer 1]
> 2000 | N#Cc1ccc(CCNC(C(=O)Nc2ccc(N3CCC4(COC4)C3)cn2)c2ccccc2)cc1 (single isomer, unassigned) [96 Isomer 2]
191 | Cn1cc(-c2ccc(NC(=O)C(NCC3(c4ccc(Cl)cc4)CC3)c3ccccc3)nc2)cn1 (single isomer, unassigned) [97 Isomer 1]
571 | CC(CNC(C(=O)Nc1ccc(-c2cnn(C)n2)cn1)c1ccccc1)c1ccc(C#N)cc1 (single isomer, unassigned) [98 Isomer 1]
> 2000 | CC(CNC(C(=O)Nc1ccc(-c2cnn(C)n2)cn1)c1ccccc1)c1ccc(C#N)cc1 (single isomer, unassigned) [98 Isomer 3]
869 | CC(CNC(C(=O)Nc1ccc(-c2cnn(C)n2)cn1)c1ccccc1)c1ccc(C(F)(F)F)cc1 (single isomer, unassigned) [99 Isomer 1]
> 2000 | CC(CNC(C(=O)Nc1ccc(-c2cnn(C)n2)cn1)c1ccccc1)c1ccc(C(F)(F)F)cc1 (single isomer, unassigned) [99 Isomer 3]
28.3 | CC(CNC(C(=O)Nc1ccc(-c2cnn(C)n2)cn1)c1ccccc1)c1ccc(C(F)(F)F)cc1 (single isomer, unassigned) [99 Isomer 4]

The next lines start with the compound.

Compound | IC50 [nM]
N#Cc1ccc(CCNC(C(=O)Nc2ccc(N3CCC(F)(F)C3)cn2)c2ccccc2)cc1 (single isomer, unassigned) [77 Isomer 2] | 1980
Cc1cn(-c2ccc(NC(=O)C(NCCc3ccc(C#N)cc3)c3ccccc3)nc2)nn1 (single isomer, unassigned) [78 Isomer 1] | 296
Cc1cn(-c2ccc(NC(=O)C(NCCc3ccc(C#N)cc3)c3ccccc3)nc2)nn1 (single isomer, unassigned) [78 Isomer 2] | > 2000
N#Cc1ccc(CCNC(C(=O)Nc2ccc(N3CC4(COC4)C3)cn2)c2ccccc2)cc1 (single isomer, unassigned) [80 Isomer 1] | 201
N#Cc1ccc(CCNC(C(=O)Nc2ccc(N3CCOCC3)cn2)c2ccccc2)cc1 (single isomer, unassigned) [81 Isomer 1] | 139
N#Cc1ccc(CCNC(C(=O)Nc2ccc(N3CCOCC3)cn2)c2ccccc2)cc1 (single isomer, unassigned) [81 Isomer 2] | > 2000
CC(CNC(C(=O)Nc1ccc(-c2cnn(C)c2)cc1)c1ccccc1)c1ccc(C#N)cc1 (single isomer, unassigned) [82 Isomer 1] | > 5000
CC(CNC(C(=O)Nc1ccc(-c2cnn(C)c2)cc1)c1ccccc1)c1ccc(C#N)cc1 (single isomer, unassigned) [82 Isomer 2] | > 5000
CC(CNC(C(=O)Nc1ccc(-c2cnn(CC(F)(F)F)c2)cn1)c1ccccc1)c1ccc(C#N)cc1 (single isomer, unassigned) [83 Isomer 1] | > 2000
CC(CNC(C(=O)Nc1ccc(-c2cnn(CC(F)(F)F)c2)cn1)c1ccccc1)c1ccc(C#N)cc1 (single isomer, unassigned) [83 Isomer 4] | 20.6
C[C@H](CNC(C(=O)Nc1ccc(-c2cnn(CC(=O)N(C)C)c2)cn1)c1ccccc1)c1ccc(C#N)cc1 (single isomer, unassigned) [84 Isomer 1] | 395
Cn1cc(-c2ccc(NC(=O)C(NCCc3ccc(C#N)c(F)c3)c3ccccc3)nc2)cn1 (single isomer, unassigned) [85 Isomer 1] | 31.9
Cn1cc(-c2ccc(NC(=O)C(NCCc3ccc(C#N)c(F)c3)c3ccccc3)nc2)cn1 (single isomer, unassigned) [85 Isomer 2] | 470
COc1ccccc1C(NCCc1ccc(C#N)cc1)C(=O)Nc1ccc(-c2cnn(C)c2)cn1 (single isomer, unassigned) [87 Isomer 1] | 264
Cn1cc(-c2ccc(NC(=O)C(NCCc3ccc(C#N)cc3)c3ccccc3Cl)nc2)cn1 (single isomer, unassigned) [88 Isomer 1] | 65.4
Cn1cc(-c2ccc(NC(=O)C(NCCc3ccc(C#N)cc3)C3CCCCC3)nc2)cn1 (single isomer, unassigned) [89 Isomer 2] | 1430

Compound | IC50 [nM]
CC(CNC(C(=O)Nc1ccc(-c2cnn(C)c2)cn1)c1ccccc1)c1ccc(C#N)cc1F (single isomer, unassigned) [90 Isomer 1] | 210
CC(CNC(C(=O)Nc1ccc(-c2cnn(C)c2)cn1)c1ccccc1)c1ccc(C#N)cc1F (single isomer, unassigned) [90 Isomer 3] | 1600
CC(CNC(C(=O)Nc1ccc(-c2cnn(C)c2)cn1)c1ccccc1)c1ccc(C#N)cc1F (single isomer, unassigned) [90 Isomer 4] | > 2000
CO[C@@H]1CCN(c2ccc(NC(=O)C(NCC(C)c3ccc(C#N)cc3)c3ccccc3)nc2)C1 (single isomer, unassigned) [92 Isomer 1] | 881
CO[C@@H]1CCN(c2ccc(NC(=O)C(NCC(C)c3ccc(C#N)cc3)c3ccccc3)nc2)C1 (single isomer, unassigned) [92 Isomer 3] | 599
CO[C@@H]1CCN(c2ccc(NC(=O)C(NCC(C)c3ccc(C#N)cc3)c3ccccc3)nc2)C1 (single isomer, unassigned) [92 Isomer 4] | > 2000
CO[C@H]1CCN(c2ccc(NC(=O)C(NCC(C)c3ccc(C#N)cc3)c3ccccc3)nc2)C1 (single isomer, unassigned) [93 Isomer 1] | 412
CO[C@H]1CCN(c2ccc(NC(=O)C(NCC(C)c3ccc(C#N)cc3)c3ccccc3)nc2)C1 (single isomer, unassigned) [93 Isomer 3] | 36
CO[C@H]1CCN(c2ccc(NC(=O)C(NCC(C)c3ccc(C#N)cc3)c3ccccc3)nc2)C1 (single isomer, unassigned) [93 Isomer 4] | > 2000
Cn1cc(-c2ccc(NC(=O)C(NCCc3ccc(Cl)cc3C#N)c3ccccc3)nc2)cn1 (single isomer, unassigned) [94 Isomer 2] | > 2000
Cn1cc(-c2ccc(NC(=O)C(NCCc3ccc(C#N)cc3C(F)(F)F)c3ccccc3)nc2)cn1 (single isomer, unassigned) [95 Isomer 2] | 1010
Cn1cc(-c2ccc(NC(=O)C(NCC3(c4ccc(Cl)cc4)CC3)c3ccccc3)nc2)cn1 (single isomer, unassigned) [97 Isomer 2] | > 2000
CC(CNC(C(=O)Nc1ccc(-c2cnn(C)n2)cn1)c1ccccc1)c1ccc(C#N)cc1 (single isomer, unassigned) [98 Isomer 4] | 1460
CC(CNC(C(=O)Nc1ccc(-c2cnn(C)n2)cn1)c1ccccc1)c1ccc(C(F)(F)F)cc1 (single isomer, unassigned) [99 Isomer 2] | 1020
CC(CNC(C(=O)Nc1ccc(-c2cn(C)nn2)cn1)c1ccccc1)c1ccc(C#N)cc1 (single isomer, unassigned) [100 Isomer 1] | 668
CC(CNC(C(=O)Nc1ccc(-c2cn(C)nn2)cn1)c1ccccc1)c1ccc(C#N)cc1 (single isomer, unassigned) [100 Isomer 3] | > 2000
